ChEMBL document CHEMBL1138945, “Development of N-4,6-pyrimidine-N-alkyl-N'-phenyl ureas as orally active inhibitors of lymphocyte specific tyrosine kinase” (Bioorg Med Chem Lett, 2006)
pIC50: −log10 of the molar value. Converted amounts (≈) assume the structure as drawn.

Columns and labels:
[1] = biological target: Tyrosine-protein kinase Lck (Homo sapiens, UniProt P06239); assay: Inhibition of Lck
[2] = Oral bioavailability in rat; format: ADME, organism-based; conditions: in vivo
[3] = Intrinsic clearance in rat hepatocytes after 1 hr at 1 uM; format: ADME, cell-based, Liver, Hepatocyte
[4] = Cmax in orally dosed rat; format: ADME, organism-based; design: route oral; conditions: in vivo, po
[5] = Aqueous solubility of the compound; format: physicochemical; conditions: buffer
[6] = test system: Jurkat; assay: Inhibition of IL2 production in Jurkat E6-1 T cell line; format: functional, cell-based; conditions: Homo sapiens
[7] = test system: Rattus norvegicus; assay: Inhibition of adjuvant-induced hind paw swelling in Lewis rat at 25 mg/kg, po after 7 days relative to control; format: functional; conditions: 168 h

Chain of Tyrosine-protein kinase Lck (P06239 whole entry): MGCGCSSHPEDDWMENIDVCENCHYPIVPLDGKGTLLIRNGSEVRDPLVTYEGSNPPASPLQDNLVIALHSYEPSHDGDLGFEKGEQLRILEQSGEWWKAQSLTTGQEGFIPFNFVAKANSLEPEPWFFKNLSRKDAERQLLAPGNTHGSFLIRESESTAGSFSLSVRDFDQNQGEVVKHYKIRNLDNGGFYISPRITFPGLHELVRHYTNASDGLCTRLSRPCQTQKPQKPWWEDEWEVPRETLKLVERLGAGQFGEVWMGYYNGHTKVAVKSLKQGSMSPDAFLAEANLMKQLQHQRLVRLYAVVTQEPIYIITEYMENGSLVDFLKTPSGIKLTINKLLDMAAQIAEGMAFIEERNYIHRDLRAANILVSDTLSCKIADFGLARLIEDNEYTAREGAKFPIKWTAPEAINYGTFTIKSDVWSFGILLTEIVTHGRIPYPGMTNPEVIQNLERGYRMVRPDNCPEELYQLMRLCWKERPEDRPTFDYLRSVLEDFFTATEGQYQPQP

| SMILES | pIC50 [1] | also measured |
| --- | --- | --- |
| CN(C)CCCN(C(=O)Nc1c(Cl)cccc1Cl)c1cc(Nc2ccc(N3CCOCC3)cc2)ncn1 | 6.81 |  |
| CCN(CC)CCOc1ccc(Nc2cc(N(C)C(=O)Nc3cc(O)ccc3C)ncn2)cc1 | 8.52 | bioavailability [2]: 1%; CLint scaled at 1 µM [3]: 108 mL/min/kg; Cmax [4]: 3 ng/mL; solubility [5]: 41 µg/mL (≈ 88.3 µM); pIC50 [6]: 7.19 |
| CCN(CC)c1ccc(Nc2cc(N(C)C(=O)Nc3ccccc3Cl)ncn2)cc1 | 5.50 |  |
| CCN(CC)CCOc1ccc(Nc2cc(N(C)C(=O)Nc3ccccc3OC)ncn2)cc1 | < 5.00 |  |
| CN(C(=O)Nc1ccccc1Cl)c1cc(Nc2ccc(F)cc2)ncn1 | 5.74 |  |
| CCN(CC)CCOc1ccc(Nc2cc(N(C)C(=O)Nc3cc(C(=O)Nc4cccc(C(F)(F)F)c4)ccc3C)ncn2)cc1 | 7.49 |  |
| CCN(CC)CCOc1ccc(Nc2cc(N(C)C(=O)Nc3cc(NC(=O)c4cc5ccccc5n4C)ccc3C)ncn2)cc1 | 6.83 |  |
| CN(C)CCCNc1cc(N(C)C(=O)Nc2c(Cl)cccc2Cl)ncn1 | 5.22 |  |
| O=C(Nc1c(Cl)cccc1Cl)N(c1ccncc1)c1cc(Nc2ccc(N3CCOCC3)cc2)ncn1 | < 5.00 |  |
| Cc1cccc(Cl)c1NC(=O)N(C)c1cc(Nc2ccc(N3CCOCC3)cc2)ncn1 | 6.72 |  |
| CN(C(=O)Nc1ccccc1Cl)c1cc(Nc2ccc(N3CCOCC3)cc2)ncn1 | 5.37 |  |
| CN(C(=O)Nc1c(Cl)cccc1Cl)c1cc(Nc2ccc(F)cc2)ncn1 | 5.41 |  |
| CCN(CC)CCOc1ccc(Nc2cc(N(C)C(=O)Nc3c(C)cccc3Cl)ncn2)cc1 | 7.55 | CLint scaled at 1 µM [3]: 25 mL/min/kg; solubility [5]: 34 µg/mL (≈ 70.4 µM); pIC50 [6]: 5.51 |
| CCN(CC)CCOc1ccc(Nc2cc(N(C)C(=O)Nc3c(Cl)cccc3C(F)(F)F)ncn2)cc1 | 7.02 |  |
| CCN(CC)CCNc1cc(N(C)C(=O)Nc2c(Cl)cccc2Cl)ncn1 | < 5.00 |  |
| CCN(CC)CCOc1ccc(Nc2cc(N(C)C(=O)Nc3c(Cl)cccc3Cl)ncn2)cc1 | 7.06 | bioavailability [2]: 66%; CLint scaled at 1 µM [3]: 40 mL/min/kg; Cmax [4]: 394 ng/mL; inhibition in vivo at 25 mg/kg [7]: 63%; solubility [5]: 38 µg/mL (≈ 75.5 µM); pIC50 [6]: 6.06 |
| CCN(CC)CCOc1ccc(Nc2cc(N(CCCN(C)C)C(=O)Nc3c(Cl)cccc3Cl)ncn2)cc1 | 6.64 |  |
| CN(C(=O)Nc1c(Cl)cccc1Cl)c1cc(NC2CCOCC2)ncn1 | < 5.00 |  |
| Cc1cccc(Cl)c1NC(=O)N(C)c1cc(Nc2ccc(N3CCN(C)CC3)cc2)ncn1 | 8.05 | solubility [5]: 2 µg/mL (≈ 4.29 µM); pIC50 [6]: 6.13 |

| SMILES | pIC50 [1] | also measured |
| --- | --- | --- |
| CCN(CC)c1ccc(Nc2cc(N(CCCN(C)C)C(=O)Nc3ccccc3Cl)ncn2)cc1 | 5.35 |  |
| CN1CCN(c2ccc(Nc3cc(N(C)C(=O)Nc4ccccc4Cl)ncn3)cc2)CC1 | 6.15 |  |
| CCN(CC)CCOc1ccc(Nc2cc(N(C)C(=O)Nc3cc(OC)ccc3C)ncn2)cc1 | 5.59 |  |
| CN1CCN(c2ccc(Nc3cc(N(C)C(=O)Nc4c(Cl)cccc4Cl)ncn3)cc2)CC1 | 8.22 |  |
| CCN(CC)c1ccc(Nc2cc(N(CCCN(C)C)C(=O)Nc3c(C)cccc3Cl)ncn2)cc1 | 6.01 |  |
| CCN(CC)CCOc1ccc(Nc2cc(N(C)C(=O)Nc3c(F)cccc3F)ncn2)cc1 | 6.38 |  |
| CNc1cc(N(CCCN(C)C)C(=O)Nc2c(Cl)cccc2Cl)ncn1 | 5.63 |  |
| CCN(CC)CCOc1ccc(Nc2cc(N(C)C(=O)Nc3cc(NC(=O)c4cc5ccccc5s4)ccc3C)ncn2)cc1 | 7.28 |  |
| CCN(CC)CCOc1ccc(Nc2cc(N(C)C(=O)Nc3cc(NC(=O)c4cccc(C(F)(F)F)c4)ccc3C)ncn2)cc1 | 8.52 | solubility [5]: 3 µg/mL (≈ 4.72 µM); pIC50 [6]: > 8.00 |
| CCN(CC)CCOc1ccc(Nc2cc(N(C)C(=O)Nc3cc(C(=O)Nc4cc(C(C)(C)C)on4)ccc3C)ncn2)cc1 | 8.40 | solubility [5]: 1 µg/mL (≈ 1.63 µM); pIC50 [6]: > 8.00 |
| CN1CCN(N(C(=O)Nc2c(Cl)cccc2Cl)c2cc(Nc3ccc(N4CCOCC4)cc3)ncn2)CC1 | 6.64 |  |
| CN(C(=O)Nc1c(Cl)cccc1Cl)c1cc(Nc2ccc(N3CCOCC3)cc2)ncn1 | 6.52 | bioavailability [2]: 0%; CLint scaled at 1 µM [3]: 48 mL/min/kg; Cmax [4]: 9 ng/mL; solubility [5]: 3 µg/mL (≈ 6.34 µM); pIC50 [6]: 5.54 |
| CN(C(=O)Nc1c(Cl)cccc1Cl)c1cc(NCCN2CCOCC2)ncn1 | < 5.00 |  |
| CCN(CC)c1ccc(Nc2cc(N(Cc3ccccc3)C(=O)Nc3ccccc3Cl)ncn2)cc1 | < 5.00 |  |
| Cc1ccc(O)cc1NC(=O)N(C)c1cc(Nc2ccc(N3CCOCC3)cc2)ncn1 | 8.40 |  |
| CCN(CC)CCOc1ccc(N(C(=O)Nc2c(Cl)cccc2Cl)c2cc(NC)ncn2)cc1 | < 5.00 |  |
| Cc1cccc(Cl)c1NC(=O)N(Cc1ccccc1)c1cc(Nc2ccc(F)cc2)ncn1 | 5.84 |  |
| CCN(CC)c1ccc(Nc2cc(N(Cc3ccc(N(C)C)cc3)C(=O)Nc3ccccc3Cl)ncn2)cc1 | < 5.00 |  |
